Measurements reported in paper PMC8482766 (Journal of Medicinal Chemistry, 2021).
Converted amounts (≈) assume the structure as drawn. Where two headings read alike, the source gives them in different places.

Experiments:
[1] = target: T1, DYRK1A (Homo sapiens, UniProt Q13627); assay type: binding; conditions: for LE: LE = 1.4(pIC50)/nonhydrogen atoms; for LLE: LLE = pIC50 – clog P
[2] = test system: KINOMEscan panel (DiscoverX) of >400 wild-type human kinases; assay type: binding; conditions: inhibitor concentration = 1 μM
[3] = test system: in-house panel of 48 representative kinases; assay type: binding
[4] = test system: Madin–Darby canine kidney cells transfected with the human MDR1 gene (MDCK-MDR1); assay: MDCK-MDR1 permeability and P-gp efflux assay; assay type: in vitro ADME; conditions: MDCK-MDR1, conclusion in words
[5] = test system: P-gp (human MDR1); assay: MDCK-MDR1 permeability and P-gp efflux assay; assay type: in vitro ADME, canine; conditions: dog, MDCK-MDR1
[6] = In vivo pharmacokinetic study, i.v. in Sprague–Dawley rats; conditions: 1 mg/kg i.v.
[7] = target: T1, DYRK1A; assay type: binding; conditions: SPR, dissociation rate (off-rate)
[8] = Thermodynamic solubility at pH 6.8; assay type: physicochemical
[9] = relative to reference compound/matched-molecular pair 11

SMILES | fold reduction in DYRK1A binding affinity [1, 9] | S score (35) [2] | other results
Cc1nn2ncccc2c1-c1ccnc(N(C)C)n1 [Compound 60] | – | – | DYRK1A binding affinity (in words) ([1]; TR-FRET assay): no binding affinity
N[C@H]1CCN(c2nccc(-c3cnn4ncccc34)n2)C1 [Compound 33, (3S)-1-(4-pyrazolo[1,5-b]pyridazin-3-yl-pyrimidin-2-yl)pyrrolidin-3-amine] | – | 0.027 | –
CN(C)c1nccc(-c2c[nH]c3ncccc23)n1 [Compound 78] | – | – | selectivity by thermal stabilization (in words) [3]: cross-reacted with several additional kinases including the NAK kinases AAK1 and BMP2K
C[C@H]1CCN(c2nccc(-c3cnn4ncccc34)n2)C1 [Compound 28, 3-[2-[(3S)-3-Methylpyrrolidin-1-yl]pyrimidin-4-yl]pyrazolo[1,5-b]pyridazine] | – | 0.050 | –
CN(C)c1nccc(-c2cnn3ncccc23)n1 [Compound 11, N,N-Dimethyl-4-pyrazolo[1,5-b]pyridazin-3-yl-pyrimidin-2-amine] | – | 0.027 | P-gp substrate [4]: not a P-gp substrate; Papp A→B [5]: 71.4 ± 0.65 ×10⁻⁶ cm/s; Papp B→A [5]: 58.7 ± 1.45 ×10⁻⁶ cm/s; adverse effects [6]: no adverse effects reported
CN(C)c1ncc(F)c(-c2cnn3ncccc23)n1 [Compound 95, 5-Fluoro-N,N-dimethyl-4-pyrazolo[1,5-b]pyridazin-3-yl-pyrimidin-2-amine] | – | – | kd [7]: 0.06 s^–1
Cc1cnn2ncc(-c3ccnc(N(C)C)n3)c2c1 [Compound 63, N,N-Dimethyl-4-(5-methylpyrazolo[1,5-b]pyridazin-3-yl)pyrimidin-2-amine] | – | 0.027 | –
F[C@@H]1CCN(c2nccc(-c3cnn4ncccc34)n2)C1 [Compound 31, 3-[2-[(3R)-3-Fluoropyrrolidin-1-yl]pyrimidin-4-yl]pyrazolo[1,5-b]pyridazine] | – | 0.011 | –
CC1CCCN1c1nccc(-c2cnn3ncccc23)n1 (stereo not shown) [Compound 24, 3-[2-(2-Methylpyrrolidin-1-yl)pyrimidin-4-yl]pyrazolo[1,5-b]pyridazine] | – | 0.004 | –
CN(c1nccc(-c2cnn3ncccc23)n1)C1CC1 [Compound 12, N-Cyclopropyl-N-methyl-4-pyrazolo[1,5-b]pyridazin-3-yl-pyrimidin-2-amine] | – | 0.013 | –
C[C@@H]1CCN(c2nccc(-c3cnn4ncccc34)n2)C1 [Compound 29, 3-[2-[(3R)-3-Methylpyrrolidin-1-yl]pyrimidin-4-yl]pyrazolo[1,5-b]pyridazine] | – | 0.035 | –
Cc1cccc(N(C)c2nccc(-c3cnn4ncccc34)n2)c1 [Compound 8b] | – | – | solubility [8]: 10 µg/mL (≈ 31.6 µM)
CC(C)N(c1nccc(-c2cnn3ncccc23)n1)C1CC1 [Compound 13] | – | – | fold reduction in DYRK1A binding affinity ([1]; matched-molecular pairs 12 and 13): 10 fold
c1cnn2ncc(-c3ccnc(N4CCC45COC5)n3)c2c1 [Compound 22, 1-(4-Pyrazolo[1,5-b]pyridazin-3-yl-pyrimidin-2-yl)-6-oxa-1-azaspiro[3.3]heptane] | – | 0.042 | –

Second part, led by results:

fold reduction in DYRK1A binding affinity [1, 9] | SMILES | S score (35) [2] | other results
~2 fold | COc1ccnn2ncc(-c3ccnc(N(C)C)n3)c12 [Compound 66, 4-(4-Methoxypyrazolo[1,5-b]pyridazin-3-yl)-N,N-dimethyl-pyrimidin-2-amine] | – | –
> 10 fold | COc1ccc2c(-c3ccnc(N(C)C)n3)cnn2n1 [Compound 65] | – | –
approximately 10 fold | CN(C)c1cccc(-c2cnn3ncccc23)n1 [Compound 111] | – | LE [1]: 0.47; LLE [1]: 3.79
~10 fold | Cc1ccnn2ncc(-c3ccnc(N(C)C)n3)c12 [Compound 64] | – | –
10 fold | CN(C)c1cc(-c2cnn3ncccc23)ccn1 [Compound 113] | – | LE [1]: 0.48; LLE [1]: 4.31
> 10 fold | Cc1ccc2c(-c3ccnc(N(C)C)n3)cnn2n1 [Compound 62] | – | –
